Reference: patent US12077555B2, “STAT degraders and uses thereof” (Kymera Therapeutics, Inc., priority 2019, dated 2024)

Each compound was assayed against STAT3 (Homo sapiens, UniProt P40763) (assay: STAT3 HiBiT degradation assay in transfected A549 cells). Settings: A549, 24 h; read-out: STAT3 HiBiT A549 degradation 24 h: Average external-Abs DC50.
Assay type: cell-based
Design: expressed in transfected cells; host or cells: A549
How it was run: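 Transfected A549 cells (~2000/well) plated 24 h, then treated 24 h at 37 °C, 5% CO2 with a 3-fold, 10-point compound dilution. HiBiT lytic luminescence read after 10 min at room temperature; remaining STAT3 normalized to negative and positive controls, four-parameter fit. DC50 binned A <0.01, B 0.01–0.1, C 0.1–1.0, D >1.0 µM.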

Chain of STAT3 (P40763 whole entry): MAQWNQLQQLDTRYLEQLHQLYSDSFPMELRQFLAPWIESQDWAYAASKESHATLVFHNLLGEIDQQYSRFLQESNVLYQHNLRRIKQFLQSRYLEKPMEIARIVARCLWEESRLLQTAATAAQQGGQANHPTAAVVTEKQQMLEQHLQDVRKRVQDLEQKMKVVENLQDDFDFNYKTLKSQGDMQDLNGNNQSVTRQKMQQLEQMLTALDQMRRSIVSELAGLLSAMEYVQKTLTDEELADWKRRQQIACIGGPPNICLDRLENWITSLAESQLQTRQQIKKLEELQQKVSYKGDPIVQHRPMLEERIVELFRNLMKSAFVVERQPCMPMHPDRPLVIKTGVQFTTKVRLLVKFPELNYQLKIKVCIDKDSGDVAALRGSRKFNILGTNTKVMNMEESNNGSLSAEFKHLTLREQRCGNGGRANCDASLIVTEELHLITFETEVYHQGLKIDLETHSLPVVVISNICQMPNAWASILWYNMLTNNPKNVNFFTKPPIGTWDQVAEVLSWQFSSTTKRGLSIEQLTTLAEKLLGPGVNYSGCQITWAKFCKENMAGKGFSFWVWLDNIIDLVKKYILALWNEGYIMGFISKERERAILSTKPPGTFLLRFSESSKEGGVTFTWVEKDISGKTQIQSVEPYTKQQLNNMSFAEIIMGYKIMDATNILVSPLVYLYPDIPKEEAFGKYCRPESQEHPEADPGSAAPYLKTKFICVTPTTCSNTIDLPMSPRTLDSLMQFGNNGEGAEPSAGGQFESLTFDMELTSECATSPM

Row | SMILES | DC50 [nM]
1 | Cc1cc(CCCCCC(=O)N[C@H](C(=O)N2C[C@H](O)C[C@H]2C(=O)N[C@@H](C)c2ccc(-c3scnc3C)cc2)C(C)(C)C)cc(OC[C@H](CCC(N)=O)NC(=O)[C@@H]2Cc3cccc4c3N2C(=O)[C@@H](NC(=O)c2cc3cc(C(=O)P(=O)(O)O)ccc3[nH]2)CC4)c1 [Compound I-213, 2-[[(2S,11S)-2-[[(2S)-4-carbamoyl-1-[3-(5-[[(2S)-1-[(2S,4R)-4-hydroxy-2-[[(1S)-1-[4-(4-methyl-1,3-thiazol-5-yl)phenyl]ethyl]carbamoyl]pyrrolidin-1-yl]-3,3-dimethyl-1-oxobutan-2-yl]carbamoyl]pentyl)-5-methylphenoxy]butan-2-yl]carbamoyl]-12-oxo-1-azatricyclo[6.4.1.0^[4,13]]trideca-4(13),5,7-trien-11-yl]carbamoyl]-1H-indole-5-carbonylphosphonic acid] | < 10
2 | Cc1ccc(CCCCCC(=O)N[C@H](C(=O)N2C[C@H](O)C[C@H]2C(=O)N[C@@H](C)c2ccc(-c3scnc3C)cc2)C(C)(C)C)cc1OC[C@H](CCC(N)=O)NC(=O)[C@@H]1Cc2cccc3c2N1C(=O)[C@@H](NC(=O)c1cc2cc(C(=O)P(=O)(O)O)ccc2[nH]1)CC3 [Compound I-214, 2-[[(2S,11S)-2-[[(2S)-4-carbamoyl-1-[5-(5-[[(2S)-1-[(2S,4R)-4-hydroxy-2-[[(1S)-1-[4-(4-methyl-1,3-thiazol-5-yl)phenyl]ethyl]carbamoyl]pyrrolidin-1-yl]-3,3-dimethyl-1-oxobutan-2-yl]carbamoyl]pentyl)-2-methylphenoxy]butan-2-yl]carbamoyl]-12-oxo-1-azatricyclo[6.4.1.0^[4,13]]trideca-4(13),5,7-trien-11-yl]carbamoyl]-1H-indole-5-carbonylphosphonic acid] | > 1000
3 | Cc1ncsc1-c1ccc([C@H](C)NC(=O)[C@@H]2C[C@@H](O)CN2C(=O)[C@@H](NC(=O)CCCCCc2cc(OC[C@H](CCC(N)=O)NC(=O)[C@@H]3Cc4cccc5c4N3C(=O)[C@@H](NC(=O)c3cc4cc(C(=O)P(=O)(O)O)ccc4[nH]3)CC5)ccc2F)C(C)(C)C)cc1 [Compound I-215] | 10 to 100
4 | Cc1ncsc1-c1ccc([C@H](C)NC(=O)[C@@H]2C[C@@H](O)CN2C(=O)[C@@H](NC(=O)CCCCCc2cc(F)cc(OC[C@H](CCC(N)=O)NC(=O)[C@@H]3Cc4cccc5c4N3C(=O)[C@@H](NC(=O)c3cc4cc(C(=O)P(=O)(O)O)ccc4[nH]3)CC5)c2)C(C)(C)C)cc1 [Compound I-216, 2-[[(2S,11S)-2-[[(2S)-4-carbamoyl-1-[3-fluoro-5-(5-[[(2S)-1-[(2S,4R)-4-hydroxy-2-[[(1S)-1-[4-(4-methyl-1,3-thiazol-5-yl)phenyl]ethyl]carbamoyl]pyrrolidin-1-yl]-3,3-dimethyl-1-oxobutan-2-yl]carbamoyl]pentyl)phenoxy]butan-2-yl]carbamoyl]-12-oxo-1-azatricyclo[6.4.1.0^[4,13]]trideca-4(13),5,7-trien-11-yl]carbamoyl]-1H-indole-5-carbonylphosphonic acid] | 10 to 100
5 | Cc1ncsc1-c1ccc([C@H](C)NC(=O)[C@@H]2C[C@@H](O)CN2C(=O)[C@@H](NC(=O)CCCCCc2cccc(OC[C@H](CCC(N)=O)NC(=O)[C@@H]3Cc4cccc5c4N3C(=O)[C@@H](NC(=O)c3cc4cc(C(=O)P(=O)(O)O)ccc4[nH]3)CC5)c2F)C(C)(C)C)cc1 [Compound I-217, 2-[[(2S,11S)-2-[[(2S)-4-carbamoyl-1-[2-fluoro-3-(5-[[(2S)-1-[(2S,4R)-4-hydroxy-2-[[(1S)-1-[4-(4-methyl-1,3-thiazol-5-yl)phenyl]ethyl]carbamoyl]pyrrolidin-1-yl]-3,3-dimethyl-1-oxobutan-2-yl]carbamoyl]pentyl)phenoxy]butan-2-yl]carbamoyl]-12-oxo-1-azatricyclo[6.4.1.0^[4,13]]trideca-4(13),5,7-trien-11-yl]carbamoyl]-1H-indole-5-carbonylphosphonic acid] | < 10
6 | Cc1cc(CO[C@H](C)[C@H](CCC(N)=O)NC(=O)[C@@H]2Cc3cccc4c3N2C(=O)[C@@H](NC(=O)c2cc3cc(C(=O)P(=O)(O)O)ccc3[nH]2)CC4)ccc1CCCCC(=O)N[C@H](C(=O)N1C[C@H](O)C[C@H]1C(=O)N[C@@H](C)c1ccc(-c2scnc2C)cc1)C(C)(C)C [Compound I-218, diammonium 2-[[(2S,11S)-2-[[(3S,4R)-1-carbamoyl-4-[[4-(4-[[(2S)-1-[(2S,4R)-4-hydroxy-2-[[(1S)-1-[4-(4-methyl-1,3-thiazol-5-yl)phenyl]ethyl]carbamoyl]pyrrolidin-1-yl]-3,3-dimethyl-1-oxobutan-2-yl]carbamoyl]butyl)-3-methylphenyl]methoxy]pentan-3-yl]carbamoyl]-12-oxo-1-azatricyclo[6.4.1.0^[4,13]]trideca-4(13),5,7-trien-11-yl]carbamoyl]-1H-indole-5-carbonylphosphonate] | < 10
7 | Cc1ncsc1-c1ccc([C@H](C)NC(=O)[C@@H]2C[C@@H](O)CN2C(=O)[C@@H](NC(=O)CCCCCc2cccc(O[C@H](C)[C@H](CCC(N)=O)NC(=O)[C@@H]3Cc4cccc5c4N3C(=O)[C@@H](NC(=O)c3cc4cc(C(=O)P(=O)(O)O)ccc4[nH]3)CC5)c2)C(C)(C)C)cc1 [Compound I-219, 2-[[(2S,11S)-2-[[(3S,4R)-1-carbamoyl-4-[3-(5-[[(2S)-1-[(2S,4R)-4-hydroxy-2-[[(1S)-1-[4-(4-methyl-1,3-thiazol-5-yl)phenyl]ethyl]carbamoyl]pyrrolidin-1-yl]-3,3-dimethyl-1-oxobutan-2-yl]carbamoyl]pentyl)phenoxy]pentan-3-yl]carbamoyl]-12-oxo-1-azatricyclo[6.4.1.0^[4,13]]trideca-4(13),5,7-trien-11-yl]carbamoyl]-1H-indole-5-carbonylphosphonic acid] | 100 to 1000
8 | Cc1ncsc1-c1ccc([C@H](C)NC(=O)[C@@H]2C[C@@H](O)CN2C(=O)[C@@H](NC(=O)CCCCCc2cccc(CNC(=O)[C@H](CCC(N)=O)NC(=O)[C@@H]3Cc4cccc5c4N3C(=O)[C@@H](NC(=O)c3cc4cc(C(=O)P(=O)(O)O)ccc4[nH]3)CC5)c2)C(C)(C)C)cc1 [Compound I-220, 2-[[(2S,11S)-2-[[(1S)-3-carbamoyl-1-([[3-(5[[(2S)-1-[(2S,4R)-4-hydroxy-2-[[(1S)-1-[4-(4-methyl-1,3-thiazol-5-yl)phenyl]ethyl]carbamoyl]pyrrolidin-1-yl]-3,3-dimethyl-1-oxobutan-2-yl]carbamoyl]pentyl)phenyl]methyl]carbamoyl)propyl]carbamoyl]-12-oxo-1-azatricyclo[6.4.1.0^[4,13]]trideca-4(13),5,7-trien-11-yl]carbamoyl]-1H-indole-5-carbonylphosphonic acid] | 100 to 1000
9 | Cc1ncsc1-c1ccc(CNC(=O)[C@@H]2C[C@@H](O)CN2C(=O)[C@@H](NC(=O)CCCCc2cccc(OC[C@H](CCC(N)=O)NC(=O)[C@@H]3Cc4cccc5c4N3C(=O)[C@@H](NC(=O)c3cc4cc(C(=O)P(=O)(O)O)ccc4[nH]3)CC5)c2)C(C)(C)C)cc1 [Compound I-221] | 10 to 100
